In PubChem BioAssay (NCI) one finds GI50 and TGI data, which are given here for 46 molecules.

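96-well plates; 48 h exposure; 5 concentrations. Endpoints by linear interpolation between flanking doses. Not reached: highest tested concentration assigned. Here, GI50 denotes the concentration required for 50% inhibition of growth. TGI denotes the concentration required for complete inhibition of growth.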

In the test the test system is MDA-MB-468 breast. Put plainly: NCI-60 cell line screen, 48 h.
As for `Cn1ccnc1C(=O)/C=C/c1ccc(CC(=O)Nc2ccc(S(F)(F)(F)(F)F)cc2)cc1`, the GI50 was 2480 nM and the TGI was 5170 nM. With `CS(=O)(=O)c1ccc(-c2cnc(N)c(C(=O)Nc3ccccc3)n2)cc1`, the GI50 is greater than 37200 nM and the TGI is greater than 100000 nM. Turning to `N=c1c2c(-c3ccccc3)c(-c3ccccc3)n(Cc3ccccc3)c2ncn1CCCO`, the GI50 was 581 nM and the TGI turned out to be 2090 nM. On to `Cc1nc2cnc3cc(F)c(-c4ccc(Oc5ncccn5)cc4Cl)cc3c2n1[C@H]1CCN(C(=O)CO)C[C@@H]1F`, for which the GI50 was 9470 nM and the TGI is 28900 nM. The matching figures for `CC(C)[C@@]12C[C@@H](OC(=O)COC(=O)/C=C/c3ccccc3)[C@@](C)(O1)[C@@H]1CC[C@@H](C)[C@H]1[C@@H]2OC(=O)/C=C/c1ccccc1`: greater than 61400 nM and greater than 100000 nM. Turning to `Cn1ccc2c(c1=O)C(=O)c1nccc3c1c-2nc1ccccc13`, the GI50 was 1440 nM and the TGI was found to be 2810 nM.

Consider `CCN(CCNc1ccc(C)c2sc3cc(Cl)ccc3c(=O)c12)CC(C)O` (stereo unspecified), for which the GI50 is 1740 nM and the TGI worked out at 3390 nM. Consider `O=C(CCCCCCSc1nc(-c2ccccc2)cc(-c2ccccc2)n1)NO`, for which the GI50 was 2770 nM and the TGI came out at 10500 nM. Take `COc1ccc(-c2cc(-c3ccccc3)nc(N3CCN(CCNc4ccnc5cc(Cl)ccc45)CC3)n2)cc1`: the GI50 is 1220 nM and the TGI is 2620 nM. On to `COc1ccc(-c2cnnn2-c2cc(OC)c3c(c2)OCO3)cc1`, for which the GI50 was 56.5 nM and the TGI is greater than 100000 nM.

On to `Cc1nc2sc(C(=O)Nc3cccc4ccccc34)c(N)c2cc1C(=O)/C=C/c1ccccc1`, for which the GI50 was 194 nM and the TGI amounted to 745 nM. The matching figures for `Cc1ccc2cc3c(ccc4ccccc43)c3c2c1CC3`: 169 nM and 372 nM.

Consider `COc1ccn2c(C(C)=O)cc(C(=O)c3ccc4c(c3)Sc3ccccc3N4)c2c1`, for which the GI50 was 159 nM and the TGI was greater than 24800 nM. The matching figures for `O=C1/C(=C/c2ccccc2F)CNC/C1=C\c1ccccc1F`: 626 nM and 2750 nM. For `COC(=O)c1cc(-c2cc(OC)c(OC)c(OC)c2)[nH]c1N/N=C/c1c(Cl)cccc1Cl`, the GI50 was 8290 nM and the TGI was 48200 nM. The matching figures for `CC(CN1CCN(C)CC1)CN1c2ccccc2Sc2ccc(C(F)(F)F)cc21` (stereo unspecified): 1630 nM and 3220 nM.

For the molecule `CN(C)c1ccc(-c2cc(-c3ccc(Nc4nc(Nc5ccccc5)nc(Nc5ccc(Cl)cc5)n4)cc3)nc(N)n2)cc1`, the GI50 is 7910 nM and the TGI was greater than 100000 nM. The matching figures for `O=C1CC(c2ccc3c(c2)OCO3)Nc2cc3c(cc21)OCO3` (stereo unspecified): 295 nM and 924 nM. The matching figures for `COc1ccc(-c2nnc(SCC(=O)Nc3ccc(/C(C)=N\O)cc3)n2-c2ccccc2)cc1OC`: 16400 nM and greater than 100000 nM. The matching figures for `CCN1CCN(CC(=O)Nc2nc3ccc(NCc4ccc(Cl)cc4)cc3s2)CC1`: 1770 nM and 4610 nM. `O=C1/C(=C/c2ccc([N+](=O)[O-])o2)Oc2ccc(Br)cc21`: the GI50 was 2020 nM and the TGI was found to be 4460 nM. The matching figures for `CCCCCc1ccc(S(=O)(=O)Nc2cccc(-c3csc(NCCN4CCN(C)CC4)n3)c2)cc1`: 1630 nM and 3160 nM. The matching figures for `NC1=C(Br)C(=O)c2ncccc2C1=O`: 570 nM and 2130 nM. The matching figures for `COc1cc(C(O)c2nc3ccccc3s2)cc(OC)c1OC` (stereo unspecified): 5680 nM and 57200 nM.

For the molecule `CN(c1ccc(NC(=O)Nc2ccc(OC(F)(F)F)cc2)cc1)c1ccnc(Nc2cccc(S(N)(=O)=O)c2)n1`, the GI50 is 3930 nM and the TGI is 8860 nM. The matching figures for `C=C(C)[C@@H]1CC[C@]2(C(=O)NCCNCCNCCN)CC[C@]3(C)[C@H](CC[C@@H]4[C@@]5(C)CC[C@H](O)C(C)(C)[C@@H]5CC[C@]43C)[C@@H]12`: 8880 nM and 22700 nM. The matching figures for `C=CCNCCCN1C(=O)c2ccc3c4c(ccc(c24)C1=O)C(=O)N(CCCNCC=C)C3=O`: 177 nM and 423 nM.

Take `C[C@H]1[C@H](C)CC[C@]2(C(=O)N3CCN(C)CC3)CC[C@]3(C)C(=CC[C@@H]4[C@@]5(C)C/C(=C/c6cccnc6)C(=O)C(C)(C)[C@@H]5CC[C@]43C)[C@H]12`: the GI50 is 665 nM and the TGI amounted to 2040 nM. The matching figures for `COc1cc(Cn2c(=S)ss/c2=N\C(=S)N(C)C)cc(OC)c1OC`: 7040 nM and greater than 100000 nM. For the molecule `Cn1c(=O)c(Oc2ccc(F)cc2F)cc2cnc(NC(CO)CO)nc21`, the GI50 was greater than 25000 nM and the TGI was greater than 25000 nM. As to `Cc1cc(NC(=O)NC(=O)c2ccccc2N)ccc1Oc1ncc(Br)cn1`, the GI50 is less than 10 nM and the TGI was greater than 100000 nM. The matching figures for `CC(C)(C)c1cc(NC(=O)Nc2ccc(-c3cn4c5c(sc4n3)CCc3c[nH]cc3-5)cc2)no1`: 1970 nM and 32800 nM. The matching figures for `COc1ccc(C(=O)/C=C/c2c(C(F)(F)F)nc3sccn23)cc1OC`: 6180 nM and greater than 100000 nM. Turning to `C/C(=C\c1ccn(-c2ccc(N)c(F)c2)n1)[C@@H]1C[C@@H]2O[C@]2(C)CCC[C@H](C)[C@H](O)[C@@H](C)C(=O)C(C)(C)[C@@H](O)CC(=O)O1`, the GI50 is 9.96 nM.

For `NC(=O)c1cc([N+](=O)[O-])c(Cl)c([N+](=O)[O-])c1`, the GI50 was 1670 nM and the TGI was 3320 nM. The matching figures for `CCCCCCCCCCCCCCCC[N+](C)(C)CCN(Cc1ccc(OC)cc1)c1ncccn1`: 1040 nM and 3580 nM. The matching figures for `COc1ccc(C/C(C)=C(\c2ccc(OCCN3CCOCC3)cc2)c2ccc(OC(=O)Cc3ccccc3)cc2)cc1`: 514 nM and 1470 nM. In the case of `C=CC1=C[C@@H]2[C@@H]3O[C@]4(CC[C@H](O4)[C@@H](C)C[C@@H](O)C3=O)C[C@H](O)C3=NCC[C@@]32CC1`, the GI50 is less than 3.33 nM and the TGI was less than 3.33 nM.

In the case of `O=C1c2ccc3c4c5ccc(c24)C(=O)N1CCCOCCCCOCCCNCc1ccc(cc1)CNCCCOCCCCOCCCN(C3=O)C5=O`, the GI50 was 802 nM and the TGI came out at 1650 nM. `CCc1cccc2c3c(sc12)C(c1ccc(Cl)cc1)C(C#N)=C(N)O3` (stereo unspecified): the GI50 was 280 nM and the TGI was determined as 1020 nM. `COc1ccc(C(=O)COc2cccc(/C=C3\CSc4ccccc4C3=O)c2)cc1`: the GI50 was 1420 nM and the TGI was found to be 2930 nM. On to `N#Cc1c2cccnc2c2nnc3cc(Cl)c(Cl)cc3n12`, for which the GI50 is 1100 nM and the TGI worked out at 2590 nM. The matching figures for `CC1=CCC(OC(=O)C(C)(C)CCC(O)(C(=O)OC2(C(C)C)CCC3(C)OC3C2)C(C)C)(C(C)C)CC1` (stereo unspecified): 351 nM and 1240 nM. In the case of `C[C@]12CC[C@@H]3c4ccc(O)cc4CC[C@H]3[C@@H]1CC[C@@H]2NS(=O)(=O)c1cccc(C(F)(F)F)c1`, the GI50 is 4080 nM and the TGI worked out at 16900 nM.

With `COc1ccc2c(c1)c(-c1nc(-c3c[nH]c4ncccc34)cs1)cn2CCCCN1CCOCC1`, the GI50 is 1950 nM and the TGI came to 3980 nM. As for `CN1CCN(c2nc(NCCCCNc3ccnc4cc(Cl)ccc34)c3ccccc3n2)CC1`, the GI50 was 1580 nM and the TGI turned out to be 3660 nM.
